In US8962244B2, “Compounds for modulating RNA binding proteins and uses therefor” (University of Massachusetts, priority 2009, dated 2015):
Like-named read-outs stand apart in the source and are kept apart here.

Tests used:
MEX-5 = biological target: T1, MEX-5 (Caenorhabditis elegans, UniProt Q9XUB2); test: Fluorescence polarization screening of MEX-5 binding to fluorescein-labeled TCR2 RNA; details: read-out: MEX-5 score
T1 construct: The fragment of mex-5 containing the TZF domain (amino acids 236-350) was amplified; made in house; host or cells: Escherichia coli JM109
T1 sequence (Q9XUB2 236-350): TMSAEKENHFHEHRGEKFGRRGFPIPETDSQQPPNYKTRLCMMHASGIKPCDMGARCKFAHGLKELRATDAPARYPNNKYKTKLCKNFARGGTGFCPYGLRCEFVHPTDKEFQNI
Description: The expression and purification of recombinant MEX-5 protein has previously been described in Pagano, J. M., Farley, B. M., McCoig, L. M. and Ryder, S. P. (2007) “Molecular basis of RNA recognition by the embryonic polarity determinant MEX-5;” J Biol Chem; 282, 8883-8894. The fragment of mex-5 containing the TZF domain (amino acids 236-350) was amplified from a commercially available ORFeome clone (Open Biosystems) and sub-cloned into the vector pMal-c (NEB), which encodes maltose binding protein as an N-terminal fusion. This construct is termed pMal-MEX-5 (236-350).
MEX-5 is expressed in Escherchia. coli JM109 liquid cultures grown at 37° C. Cultures were induced during mid log phase by the addition of 0.1 mM isopropyl 1-thio-β-D-galactopyranoside (IPTG) and allowed to grow for three hours. An amount of 100 μM zinc acetate (final concentration) was added at the time of induction. The pelleted cells were resuspended in lysis buffer (50 mM Tris pH 8.8, 200 mM NaCl, 2 mM DTT, EDTA free protease inhibitor tablet (Roche), 100 μM Zn(OAc)2) and lysed by sonication. The soluble protein was purified in three steps using standard chromatography methods: (1) amylose affinity (NEB), (2) Hi-TRAP-Q (GE Healthcare), and (3) Hi-TRAP-S (GE Healthcare). The Q buffer was composed of 50 mM Tris, pH 8.8, 20 mM-1500 mM NaCl, 2 mM DTT, and 100 μM Zn(OAc)2. The S buffer was composed of 50 mM MOPS, pH 6.0, 20 mM-1500 mM NaCl, 2 mM DTT, 100 μM Zn(OAc)2. The pure fractions, determined by coomassie-stained SDS-PAGE, were dialyzed into storage buffer (20 mM Tris, pH 8.0, 25 mM NaCl, 100 μM Zn(OAc)2, 2 mM DTT). The protein concentration was determined by measuring absorbance at 280 nm and the calculated extinction coefficient. The protein was stored at 50 μM concentration at 4° C.
All RNA oligonucleotides were chemically synthesized by Dharmacon or Integrated DNA Technologies. Upon arrival, each RNA was deprotected and stored according to the manufacturer's instructions. Prior to use, the RNA was resuspended in 10 mM Tris-HCl, pH 8.0, 0.1 mM EDTA, and the concentration determined by UV spectrophotometry using the calculated extinction coefficient at 260 nm based on the specific sequence. The sequence of the MEX-5 binding RNA (TCR2) is […] (SEQ ID NO:1). The POS-1 binding RNA (BMF018) is […] (SEQ ID NO:2). The MEX-3 binding RNA (SEQ 14) is […] (SEQ ID NO:3).
The RNA used for the small molecule screen was labeled at the 3′-end with fluorescein by Dharmacon during synthesis. In a few cases, follow up experiments were performed with post-synthetically labeled RNA. In this case, fluorescein 5-thiosemicarbazide (FTSC, Invitrogen) was used to 3′-end label each RNA after treatment with sodium periodate (see Reines, S. A. and Cantor, C. R. (1974) “New fluorescent hydrazide reagents for the oxidized 3′-terminus of RNA” Nucleic Acids Res. 1, 767-786). A representative 50 μl reaction consisted of 0.5 nanomoles RNA, 100 mM NaOAc, pH 5.1, and 5 nanomoles NaIO4. After the reaction was complete (90 minutes at room temperature), the sample was ethanol precipitated by adding 1 μl RNase free glycogen (Invitrogen 20 μg/μl), 1/20th volume of 5 M NaCl, and 2 volumes of 100% ice-cold ethanol. The resulting pellet was resuspended in 50 μl of 100 mM NaOAc, pH 5.1 containing 1 mM FTSC and was allowed to react overnight at 4° C. in the dark. The unreacted label was removed by ethanol precipitation with resuspension of the pellet in a small volume of TE, and purification over a Roche G-25 size exclusion spin column. The labeling efficiency is determined by calculating the ratio of fluorescein absorbance at 490 nm to RNA-fluorescein absorbance at 260 nm. Typical efficiencies are 60-80%.
The ability of MEX-5 to associate with RNA was monitored by fluorescence polarization using a victor V3 or victor V2V plate reader (Perkin Elmer) in 384-well FluoTrak microplates (Grenier). […]

POS-1 = biological target: T2, POS-1 (Caenorhabditis elegans, UniProt G5EF15); test: Fluorescence polarization screening of POS-1 binding to fluorescein-labeled BMF018 RNA; details: read-out: POS-1 score
T2 construct: 6-his tag (N); made in house; host or cells: E. coli BL21 (DE3) Gold
T2 sequence (G5EF15 80-180): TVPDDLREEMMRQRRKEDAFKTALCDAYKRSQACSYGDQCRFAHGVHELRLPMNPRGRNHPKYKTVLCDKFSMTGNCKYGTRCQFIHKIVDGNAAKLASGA

[1] = 192 μM test compound, score = polarization relative to no-drug and no-protein controls, 0.25 = 75% inhibition, lowest score = greatest inhibition

SMILES | remaining activity at 192 µM (MEX-5; [1]) [%] | remaining activity at 192 µM (POS-1; [1]) [%] | remaining activity at 192 µM (MEX-5) [%] | remaining activity at 192 µM (POS-1) [%]
Cc1[nH]nc(-c2ccc(O)c(O)c2O)c1-c1ccccc1 [P] | 3.42 | 4.3 | – | –
Sc1nnc(CSCc2ccccc2Cl)n1-c1ccccc1 [BL] | 18.8 | 27.6 | – | –
Cc1ccc(S(=O)(=O)NC(=S)NCc2cccc(Oc3ccccc3)c2)cc1 [BY] | 21.3 | 14.4 | – | –
O=C(O)c1ccc(Sc2nnc(-c3cccc(Br)c3)o2)c([N+](=O)[O-])c1 [G] | -0.64 | 24.2 | – | –
O=C1NN(c2cccc(Br)c2)C(=O)/C1=C\c1cccc(OC(=O)c2cccs2)c1 [BI] | 17.9 | 10.6 | – | –
O=C(Oc1ccc2c(c1)C1C=CCC1C(C(=O)O)N2)c1ccc(Cl)cc1Cl (stereo not shown) [K] | 0.00138 | 5.81 | – | –
CC1(C)Cc2ccccc2-c2[nH]c3nnc(S)n3c(=O)c21 [O] | 2.3 | 4.77 | – | –
O=S(=O)(Nc1ccc(O)c(NS(=O)(=O)c2ccccc2)c1)c1ccccc1 [F] | -0.711 | -2.79 | – | –
O=C(Oc1ccc2ccccc2c1)c1ccc2c(c1)C1C=CCC1C(C(=O)O)N2 (stereo not shown) [H] | -0.336 | 1.95 | – | –
Oc1ccc(Br)cc1-c1n[nH]c(=S)n1Cc1ccccc1 [CB] | 21.7 | 23.9 | – | –
CCn1c(-c2cc(Br)ccc2O)n[nH]c1=S [AU] | 13.4 | 24.8 | – | –
Cn1c(S)nnc1-c1ccccc1O [Z] | 6.88 | 12.7 | – | –
O=C1NN(c2ccccc2)C(=O)/C1=C\c1cccc(OC(=O)c2cccs2)c1 [CA] | 21.6 | 23 | – | –
COc1ccc(C(=O)NC(=S)Nc2ccc(C(=O)O)c(Cl)c2)cc1[N+](=O)[O-] [BF] | 16.7 | 9.05 | – | –
Cc1n[nH]c(SCc2ccc(CSc3nc(C)n[nH]3)cc2)n1 [AA] | 7.14 | 0.702 | – | –
Cc1sc(NC(=O)c2cnccn2)c(C(N)=O)c1C [AZ] | 14.4 | 25.4 | – | –
COc1ccccc1C(=O)NC(=S)Nc1ccc(C(=O)O)c(Cl)c1 [BV] | 21.1 | 12.2 | – | –
CC1(C)CC(Cc2nnc(S)[nH]2)C(=O)O1 (stereo not shown) [S] | 5 | 10.5 | – | –
O=C(O)c1ccc(C2Nc3ccc([N+](=O)[O-])cc3C3c4ccccc4CC23)cc1 (stereo not shown) [AB] | 7.3 | 10.9 | – | –

SMILES | remaining activity at 192 µM (MEX-5; [1]) [%] | remaining activity at 192 µM (POS-1; [1]) [%] | remaining activity at 192 µM (MEX-5) [%] | remaining activity at 192 µM (POS-1) [%]
CCCCN1C(=O)/C(=c2\sc3nc(-c4ccccc4OC(C)=O)nn3c2=O)c2ccccc21 [M] | 1.62 | 11.7 | – | –
O=C(Cn1cnc2ccccc2c1=O)Nc1ccc(S(=O)(=O)Nc2nccs2)cc1 [BJ] | 18.2 | 11.9 | – | –
COc1ccc(N2C(=O)NC(=O)/C(=C/c3cccc(OC(=O)c4cccs4)c3)C2=O)cc1Cl [AV] | – | – | 14 | 10.9
O=S(=O)(Nc1nc(-c2ccccc2)c(-c2ccccc2)o1)c1ccc(Cl)cc1 [CO] | 24.1 | 16 | – | –
CCc1nnc(NS(=O)(=O)c2ccc(NC(=O)c3cc4cc(OC)ccc4oc3=O)cc2)s1 [BU] | 20.8 | 18.1 | – | –
Cc1n[nH]c(SCc2cccc(CSc3nc(C)n[nH]3)c2)n1 [L] | 1.21 | -0.0864 | – | –
CC(=O)NC(c1ccco1)c1cc([N+](=O)[O-])c2cccnc2c1O (stereo not shown) [Y] | 6.77 | 6.04 | – | –
O=C(O)CCn1cc(C=C2C(=O)NC(=S)NC2=O)c(-c2cc3ccccc3oc2=O)n1 [BA] | – | – | 15.2 | 22.2
CC(=O)Oc1ccc(S(=O)(=O)c2ccc(OC(C)=O)c(OC(C)=O)c2)cc1OC(C)=O [J] | -0.0941 | 8.51 | – | –
Cc1ccc(O)c(NS(=O)(=O)c2ccc([N+](=O)[O-])cc2)c1 [CD] | 22.6 | 12.4 | – | –
COC(=O)c1ccccc1OC(=O)c1ccc2c(c1)C1C=CCC1C(C(=O)O)N2 (stereo not shown) [A] | -10.3 | 7.5 | – | –
O=C(O)C1CCC(N2C(=O)c3c(Cl)c(Cl)c(Cl)c(Cl)c3C2=O)CC1 (stereo not shown) [AO] | 10.6 | 6.81 | – | –
Cc1nnc(NC(=O)c2cccc(C(=O)Nc3nnc(C)s3)n2)s1 [AF] | 8.13 | 22.7 | – | –
COc1cc2ccccc2cc1C(=O)NC(=S)Nc1cccc(C(=O)O)c1 [BS] | 20 | 24.3 | – | –
COc1ccc(NC(=S)c2nc3ccccc3[nH]2)cc1 [T] | 5.51 | 8.99 | – | –
O=C(O)C1Nc2cc(Cl)cc(Cl)c2C2C=CCC12 (stereo not shown) [W] | 6.4 | 5.39 | – | –
O=[N+]([O-])c1ccc(S(=O)(=O)Nc2cc(Cl)ccc2O)cc1 [AD] | 8.04 | 8.27 | – | –
O=S(=O)(Nc1ccc(Cl)cc1O)c1ccccc1 [D] | -1.58 | -3.79 | – | –
Oc1ccc(-c2csc(Nc3cccc4ccccc34)n2)cc1O [AY] | 14.1 | 18 | – | –
